Reference: PubChem BioAssay AID1996
Converted amounts (≈) assume the structure as drawn.

Conditions: buffer; pH 7.4; 200.0 µM

SMILES	solubility kinetic [µg/mL]
O=c1cc(C(F)(F)F)[nH]c2c(OC(F)(F)F)cccc12	> 44.6
Cc1ccccc1NC(=S)NC12CN3CN(CN(C3)C1)C2	> 45.5
COc1ccc(CCNc2ncnc3c2c(C)c(C)n3CCO)cc1OC	53.8 (≈ 145 µM)
O=C(Cc1c[nH]c2ccccc12)N1CCN(c2ccccc2)CC1	3.9 (≈ 12.2 µM)
COc1ccc(C(C)(C)C)cc1NC(=O)COC(=O)CN1C(=O)NC2(CCCCC2C)C1=O (stereo not given)	38 (≈ 82.7 µM)
COc1cnc(-c2ccccn2)nc1Oc1cccc(C(F)(F)F)c1	37.4 (≈ 108 µM)
CN(CC(=O)Nc1ccccc1Cl)C(=O)CCNC(=O)Nc1ccccc1	> 58.3
COc1cccc(C(=O)NN2C(=S)N(c3ccccc3)C(=O)C2CC(N)=O)c1 (stereo not given)	> 59.8
COc1ccc(NC(=O)CN(C)C(=O)CC2CCCCC2)cc1	> 47.8
CCn1c(O)c(C#N)c(C)cc1=O	> 26.7
Cc1cc(NC(=O)Cc2ccccc2C)no1	32.5 (≈ 141 µM)
O=C1c2cccc3c2N(CCC3)C(=O)C1(F)c1ccccc1 (stereo not given)	> 44.3
O=C(c1cc(-c2ccc(O)cc2)on1)N1CCCC1	> 38.7
CC(C)Nc1nc(Cl)nc(NC2CCCCC2)n1	2.7 (≈ 10 µM)
CCOC(=O)C1=C(C)NC(=S)NC1c1ccco1 (stereo not given)	39.9 (≈ 150 µM)
C=CCOc1ccccc1NC(=O)CN1C(=O)CNC1=O	> 43.4
O=C(/C=C/c1ccco1)OCC(=O)c1cccc([N+](=O)[O-])c1	3.2 (≈ 10.6 µM)
Cc1c(Cl)cccc1Nc1ccccc1C(=O)O	> 39.3
O=c1[nH]c(O)c(C=Nc2ccccc2Oc2ccccc2)c(=O)[nH]1	0.8 (≈ 2.47 µM)
COc1ccc(NC(=S)Nc2cccc(C(F)(F)F)c2)c(C)c1	8 (≈ 23.5 µM)
CCC1CCCCN1CC(O)COCc1cccc(OC)c1 (stereo not given)	31.4 (≈ 102 µM)
COc1ccc(Nc2oc(-c3ccc(F)cc3)nc2C#N)cc1	< 0.2

SMILES	solubility kinetic [µg/mL]
CC(C)(C)c1ccc(Oc2ccc(NC(=O)c3ccco3)cn2)cc1	< 0.4
CCOC(=O)c1cc(S(=O)(=O)N2CCOCC2)cn1C	45.1 (≈ 149 µM)
O=C(Nc1cccc(C(=O)O)c1)/C(=C\c1ccco1)NC(=O)c1ccccc1	51 (≈ 136 µM)
COc1ccc(CNCc2cccc(C)c2)cc1.O=C(O)C(=O)O	> 49.7
COc1ccc(-c2ccc3c(N)c(C(=O)NC(C)C)sc3n2)cc1OC	30.1 (≈ 81 µM)
O=C(O)CNC(=S)NCc1ccccc1	> 33.6
COC(=O)c1cccc(NC(=O)Cc2ccsc2)c1	> 41.3
CC(O)CNCCNCc1cccs1.Cl (stereo not given)	> 43.1
CCCn1c(=O)c2c(nc3n2CCS3)n(C)c1=O	> 39.9
Cc1cc(C)nc(/N=C(\NC(=O)C(C)(C)C)Nc2ccccc2)n1	1.8 (≈ 5.53 µM)
O=C(Cc1cccs1)NCc1ccccc1Br	24.8 (≈ 79.9 µM)
CC(C)NC(=O)c1ccc(-n2c(=S)[nH]c3ccccc3c2=O)cc1	3.9 (≈ 11.5 µM)
O=C(COC(=O)c1cccc(F)c1)NC(=O)NCc1ccccc1	2.4 (≈ 7.27 µM)
Cc1ccc(C)c(C(C)NC(=S)NC2CCCCC2)c1 (stereo not given)	10.7 (≈ 36.8 µM)
Cc1[nH]c2ccccc2c1C(=O)C(=O)N1CCOCC1	> 40.8
CNC(=O)c1cc(C(=O)c2ccc(C(F)(F)F)cc2)c[nH]1	1.8 (≈ 6.08 µM)
CN(C)Cc1cc(C(C)(C)C)cc(C(C)(C)C)c1O	0.8 (≈ 3.04 µM)
O=C(Cc1ccccc1)c1c[nH]c(C(=O)NC2CCCC2)c1	2.6 (≈ 8.77 µM)
O=C(O)c1ccc(S(=O)(=O)N(Cc2ccccc2)Cc2ccccc2)cc1	19.5 (≈ 51.1 µM)
O=C(COc1ccc(F)c(Cl)c1)N1CCCCCCC1	32.8 (≈ 109 µM)
CS(=O)(=O)N1CCC(C(=O)Nc2cccc([N+](=O)[O-])c2)CC1	44.3 (≈ 135 µM)
Cc1cc(C)c(OCC(=O)Nc2cc(C(=O)O)cc(C(=O)O)c2)cc1C	> 53.6

SMILES	solubility kinetic [µg/mL]
Brc1c(NC2=NCCN2)ccc2nccnc12	11.2 (≈ 38.3 µM)
COc1cccc(C(=O)NOCc2ccc(C)cc2)c1OC	> 45.2
CN(c1ccc(C(=O)N2CCCCC2)cc1)S(=O)(=O)c1cccs1	52.7 (≈ 145 µM)
CCC(C(=O)Nc1ccon1)c1ccccc1 (stereo not given)	> 34.5
O=C(O)c1ccc(S(=O)(=O)NCc2ccc3c(c2)OCO3)cc1	> 50.3
COc1ccc(N2C(=O)CSC2c2ccc(F)cc2)cc1 (stereo not given)	> 45.5
O=C(NC1CCN(S(=O)(=O)c2ccc(F)cc2)CC1)c1ccco1	17.5 (≈ 49.7 µM)
Cc1cc(C)cc(NC(=S)N2CCN(c3ccccn3)CC2)c1	9.2 (≈ 28.2 µM)
O=C(NCCc1ccccc1)c1ccc(Cl)c(S(=O)(=O)N2CCOCC2)c1	9.3 (≈ 22.7 µM)
CCC(OCC(O)CN1CCCCC1)c1ccccc1.Cl (stereo not given)	> 47.1
COc1cccc(S(=O)(=O)N2CCN(C(=O)c3ccco3)CC2)c1	51.3 (≈ 146 µM)
Cc1ccc(C(=O)CCC(=O)Nc2ncccc2C)cc1	> 42.4
COc1ccc(CCN(C)C2CCCN(S(C)(=O)=O)C2)cc1OC (stereo not given)	> 53.5
CC1CCN(C(=O)CN2C(=O)COc3ccc(Cl)cc32)CC1	> 48.4
CC(=O)c1ccccc1NC(=O)COC(=O)CCC1CCCC1	7.7 (≈ 24.3 µM)
O=C(NCCOC(=O)c1ccccc1)c1ccc([N+](=O)[O-])cc1	14 (≈ 44.5 µM)
COP(=O)(OC)C(Nc1ccc(Cl)cc1)c1ccccc1 (stereo not given)	> 48.9
Cc1cc(C)c2c(N)c(C(=O)Nc3ccccc3F)sc2n1	0.4 (≈ 1.27 µM)
COc1ccc(S(=O)(=O)N2CCOCC2)cc1NC(=O)COC(=O)Cc1ccccc1	51.7 (≈ 115 µM)
Cc1ccc(OCCOC(=O)c2c(-c3ccccc3)noc2C)cc1	< 0.7
COc1cccc(CN(C)C(=O)c2ccc(N3CCCC3)c([N+](=O)[O-])c2)c1	21.9 (≈ 59.3 µM)
N#Cc1cccc(NC(=O)CSc2cccc[n+]2[O-])c1	> 42.8

SMILES	solubility kinetic [µg/mL]
CC1Cc2ccccc2N1C(=O)COC(=O)c1ccc([N+](=O)[O-])o1 (stereo not given)	> 49.5
O=C(Cn1cc(C(F)(F)F)cc(Cl)c1=O)NCc1ccccc1	7.8 (≈ 22.6 µM)
O=C1NC(=O)/C(=C\c2ccc(O)cc2O)S1	> 35.6
Cc1ccc(CNC(=S)N(C)C)cc1	> 31.2
CCOc1ccc(N2CC(C(=O)NC3CCCC3)CC2=O)cc1 (stereo not given)	> 47.5
COc1ccc2ccccc2c1CN(C)Cc1ccccc1.O=C(O)C(=O)O	53.1
O=C(NC(=S)NCc1cccnc1)c1ccccc1F	> 43.4
O=C(CN1CCCC1)Nc1ccc(OCc2ccccc2)cc1	> 46.6
Cc1ccc(CNC(=O)CN2CCN(c3ccc(F)cc3)CC2)cc1	> 51.2
O=C(CSC(=S)N1CCOCC1)Nc1ncc2c(n1)CCCC2=O	54.7 (≈ 149 µM)
COc1ccc(NC(=O)c2cc(-c3ccc(C)cc3)on2)cc1OC	< 0.4
Cc1csc(=O)n1CC(=O)Nc1ccc(C(C)C)cc1	29.4 (≈ 101 µM)
COC(=O)CSc1nc2ccc(C)cc2cc1C#N	1.9 (≈ 6.98 µM)
CCn1c(=O)c2ccccc2n(Cc2cccc(C)c2)c1=O	19.9 (≈ 67.6 µM)
O=C(c1ccc(=O)oc1)N1CCC(C(O)(c2ccccc2)c2ccccc2)CC1	57.3 (≈ 147 µM)
Cc1ccc(S(=O)(=O)N2CCOCC2)cc1NC(=O)COC(=O)C1(C)CC1(Cl)Cl (stereo not given)	> 69.8
Cc1ccc(OCC(O)CNC2CCCC2)cc1C.Cl (stereo not given)	> 45
CN1c2ccc(Cl)cc2C(=O)NC1c1ccc([N+](=O)[O-])s1 (stereo not given)	30.1 (≈ 93 µM)
CCN1CNC(=S)N(c2cccc(C)c2)C1	> 35.3
